Columns and labels:
porcine α-amylase = target: T1, porcine α-amylase (Sus scrofa, UniProt P00690); experiment: Porcine α-amylase inhibition assay; assay type: biochemical
T1 sequence (P00690 16-511): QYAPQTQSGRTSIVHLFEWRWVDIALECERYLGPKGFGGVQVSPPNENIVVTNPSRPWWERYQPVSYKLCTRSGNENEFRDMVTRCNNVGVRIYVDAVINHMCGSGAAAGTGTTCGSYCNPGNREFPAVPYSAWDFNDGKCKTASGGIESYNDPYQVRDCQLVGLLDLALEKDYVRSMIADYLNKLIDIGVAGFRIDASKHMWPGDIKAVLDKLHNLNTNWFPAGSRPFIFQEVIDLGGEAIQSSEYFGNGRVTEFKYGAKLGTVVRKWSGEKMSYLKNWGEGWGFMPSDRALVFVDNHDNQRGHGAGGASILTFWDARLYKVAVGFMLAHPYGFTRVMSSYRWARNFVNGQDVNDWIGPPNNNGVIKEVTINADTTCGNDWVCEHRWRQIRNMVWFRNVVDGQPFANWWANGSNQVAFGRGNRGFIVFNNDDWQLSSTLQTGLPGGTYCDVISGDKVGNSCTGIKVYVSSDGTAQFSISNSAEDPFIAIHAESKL
Description: In this study, the inhibition activity of porcine α-amylase was evaluated following a previously reported method. […] The combination was incubated at 25 °C for a specific period, following which starch solution mixed with sodium phosphate (0.02 M pH 6.9) and sodium chloride (6 mM) was added and incubated at 25 °C for 10 min. After the incubation, 1 mL of dinitrosalicylic acid (color reagent) was included in the mixture at 100 °C for 10 min to stop the reaction, followed by chilling to 25 °C. The absorbance of the resulting combination was measured at 540 nm, after adding 1 mL of deionized water. The percentage of inhibition activity of porcine α-amylase was calculated using Equation (1).

mushroom tyrosinase = experiment: Tyrosinase inhibition assay; assay type: biochemical; conditions: for tyrosinase inhibition: highest concentration (5 mg/mL); for Tyrosinase inhibition activity IC50: mean ± SD, n = 3
Description: To assess the inhibition of tyrosinase activity, a previously reported method was followed in this study. […] The mixture was incubated at 37 °C for 10 min, and then 1 mL of 50 units/mL mushroom tyrosinase liquefied in 0.2 M, pH 6.8 phosphate buffer was added. The resulting mixture was incubated for an additional 10 min, and the absorbance was measured at 475 nm. Ethanol (50%) was used as a blank, while 1 mL of deionized water was a control. The percentage of tyrosinase inhibition activity was calculated using Equation (1).

[1] = DPPH free radical-scavenging assay; conditions: wet basis; mean ± SD, n = 3
Description: The percentage inhibition of these radical compounds was determined using Equation (1):% Inhibition DPPH^• = (Abs. control − Abs. sample)/(Abs. control) × 100(1)
The absorbance of the DPPH^• mixture without the test sample was considered as the Abs. control test. Absorbance was measured with a Varian CARY 50 Scan UV–VIS Spectrophotometer equipped with a Cary 50 Microplate Reader (Varian, Inc., Walnut Creek, CA, USA).

[2] = ABTS free radical-scavenging assay; conditions: for ABTS maximum antioxidant activity: at 5 mg/mL
Description: The ABTS^• radicals are employed as a model system to assess the antioxidant activity of the compounds [33]. The percentage inhibition of the ABTS^• radicals by the test compounds was calculated using Equation 1, as described earlier.

[3] = Ferric-reducing/antioxidant power (FRAP) assay; conditions: for maximum FRAP value: at 5 mg/mL; for FRAP antioxidant inhibition activity IC50: wet basis, mean ± SD, n = 3
Description: The FRAP reagent was prepared by mixing TPTZ (10 mM mixture) in 40 mM HCl, FeCl3 (20 mM), and acetate buffer (pH 3.6, 0.3 M) in a ratio of 1:1:10 (v/v/v). Next, 1 mL of the test sample was mixed with 2 mL of freshly prepared FRAP reagent, and the solutions were incubated for 30 min at 37 °C. The absorbance of the resulting mixture was measured at 593 nm. Deionized water was employed as a blank, and FeSO4 was used to establish the calibration curve. The FRAP values were expressed as µmol of Fe (II).

[4] = Total antioxidant capacity (TAC) phosphomolybdate assay; conditions: for maximum total antioxidant capacity value (absorbance at 695 nm): at 5 mg/mL; for Total Antioxidant Capacity IC50: wet basis, mean ± SD, n = 3
Description: Briefly, a reagent containing sodium phosphate (28 mM), sulfuric acid (0.6 M), and ammonium molybdate (4 mM) was added to 0.1 mL of the test samples, and the mixture was incubated at 95 °C for 90 min. After cooling, the absorbance of the mixture was measured at 695 nm. A higher absorbance value indicates a greater antioxidant capacity of the tested samples.

[5] = Nitric oxide radical (NO) scavenging, Griess reaction; conditions: for NO-scavenging maximum inhibition: at 5 mg/mL; for Nitric Oxide scavenging IC50: wet basis, mean ± SD, n = 3
Description: The reaction mixture contained 2 mL of sodium nitroprusside (10 mM), 0.5 mL of saline phosphate buffer, and 0.5 mL of the test samples. The mixtures were incubated for 150 min at 25 °C. After incubation, 0.5 mL of the reaction mixture was combined with 1 mL of sulfanilic acid reagent (0.33% in 20% glacial acetic acid). Following a 5 min wait, 1 mL of naphthyl ethylene diamine dihydrochloride (0.1%) was added. The mixtures were left for 30 min at room temperature, and the absorbance was measured at 540 nm. The percentage of nitrites was calculated using Equation 1, as described earlier.

acetylcholinesterase = acetylcholinesterase (Homo sapiens, UniProt P22303); experiment: Acetylcholinesterase inhibition assay; assay type: biochemical
Sequence of acetylcholinesterase (P22303 32-614, species assumed): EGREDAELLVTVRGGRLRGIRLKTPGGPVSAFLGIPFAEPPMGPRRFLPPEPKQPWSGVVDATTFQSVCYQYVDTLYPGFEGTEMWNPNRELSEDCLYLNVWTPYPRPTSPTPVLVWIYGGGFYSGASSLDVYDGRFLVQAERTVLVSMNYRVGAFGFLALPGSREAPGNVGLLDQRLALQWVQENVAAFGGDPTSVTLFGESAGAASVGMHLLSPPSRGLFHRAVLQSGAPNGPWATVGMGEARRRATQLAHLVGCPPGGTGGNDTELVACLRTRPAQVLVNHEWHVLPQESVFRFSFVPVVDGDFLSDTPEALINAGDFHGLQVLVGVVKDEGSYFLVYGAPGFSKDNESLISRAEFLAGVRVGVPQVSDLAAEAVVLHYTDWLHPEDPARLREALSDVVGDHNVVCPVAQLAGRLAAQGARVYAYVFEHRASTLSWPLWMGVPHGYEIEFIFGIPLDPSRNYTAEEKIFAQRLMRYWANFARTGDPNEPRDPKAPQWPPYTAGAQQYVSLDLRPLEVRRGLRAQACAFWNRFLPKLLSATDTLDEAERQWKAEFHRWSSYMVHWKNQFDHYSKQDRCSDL
Description: The mixture was then incubated at room temperature for 15 min. After this, 475 µL of 3 mM DTNB solution and 75 µL of […] 15 mM were added to the mixture and incubated for an additional 30 min at room temperature. Finally, the absorbance of the mixture was measured at 405 nm, and the percentage of inhibition activity of acetylcholinesterase was calculated by Equation (1), as explained earlier.

plasmid pBR322 DNA = experiment: Free radical-induced (H2O2 + UV) DNA damage assay; assay type: biochemical
Description: Once the reaction was completed, the tested samples were electrophoresed through a polysaccharide agarose 0.8% gel, and we stained the electrophoresed gel with ethidium bromide. The electrophoresed gel was analyzed, and we captured photographs of the electrophoresed gel using Image Lab 4.1 software, version 6.1.0. (Bio-Rad, Hercules, CA, USA).

[6] = test system: bovine serum albumin (BSA); experiment: Protein oxidation produced by AAPH (SDS-PAGE); conditions: AAPH 20 mM, 30 min
Description: The mixture was then incubated in a shaking water bath for 30 min at 37 °C. A control sample not including AAPH was also prepared. After incubation, the mixture was loaded onto an SDS-PAGE 10% gel under reduction conditions for 5 min at 100 °C. Images of the stained gel were captured using a Chemi-Doc MV gel documentation system (Bio-Rad, Hercules, CA, USA). The intensity of the bands was determined to quantify the aggregate of protein damage for all bands employing Image Lab 4.1 Software version 6.1.0 (Bio-Rad, Hercules, CA, USA). […] The use of SDS-PAGE and staining methods provides a visual representation of the extent of protein damage and allows for quantification of the results.

[7] = test system: Escherichia coli (ATCC 25922); experiment: Agar-well diffusion susceptibility test; assay type: cell-based; conditions: E. coli
Description: (§1) The pre-cultures of these pathogens were prepared through separate cultivation on Muller–Hinton broth at 37 °C for 24 h. […] After cultivation at 37 °C for 24 h, the developed inhibition zones (Halo zones) around wells indicated positive results. Amoxicillin (AX-25) and ampicillin (AM-10) were included as reference antibacterial drugs, while clotrimazole (CLT) and amphotericin-B (AmB) were applied as reference antifungal drugs.

[8] = test system: Pseudomonas aeruginosa (ATCC 27853); experiment: Agar-well diffusion susceptibility test; assay type: cell-based; conditions: P. aeruginosa
Description: as §1

[9] = test system: Salmonella typhimurium (ATCC 14028); experiment: Agar-well diffusion susceptibility test; assay type: cell-based; conditions: S. typhimurium
Description: as §1

[10] = test system: Staphylococcus aureus (ATCC 25923); experiment: Agar-well diffusion susceptibility test; assay type: cell-based; conditions: S. aureus
Description: as §1

[11] = test system: Streptococcus mutans (ATCC 25175); experiment: Agar-well diffusion susceptibility test; assay type: cell-based; conditions: S. mutans
Description: as §1

[12] = test system: Candida albicans (ATCC 10231); experiment: Agar-well diffusion susceptibility test; assay type: cell-based; conditions: C. albicans; Control 2 for yeast, 10 mg/disc
Description: as §1

[13] = highest concentration tested (5 mg/mL)

## C[C@H]1O[C@H](O[C@H]2[C@H](O)[C@@H](O)[C@@H](O[C@H]3[C@H](O)[C@@H](O)C(O)O[C@@H]3CO)O[C@@H]2CO)[C@H](O)[C@@H](O)[C@@H]1N[C@H]1C=C(CO)[C@@H](O)[C@H](O)[C@H]1O (some centres unmarked) [Acarbose, acarbose]
Porcine α-amylase; [13]
  inhibition at 5000 µg/mL: 99.12 ± 0.1%

## O=c1cc(CO)occ1O [Kojic Acid, kojic acid]
Mushroom tyrosinase
  tyrosinase inhibition: 99.88 ± 0.11%

## C[C@@H]1O[C@@H](OC[C@H]2O[C@@H](Oc3c(-c4ccc(O)c(O)c4)oc4cc(O)cc(O)c4c3=O)[C@H](O)[C@@H](O)[C@@H]2O)[C@H](O)[C@H](O)[C@H]1O [Rutin, rutin]
[1]
  DPPH antioxidant inhibition activity IC50: 417.80 ± 5.78 µg/mL
[2]
  ABTS maximum antioxidant activity: 92.69 ± 0.32%
[2]; wet basis, mean ± SD, n = 3
  ABTS antioxidant inhibition activity IC50: 6.50 ± 0.08 µg/mL
[3]
  maximum FRAP value: 10,644.00 ± 86.02 µmol of Fe (II)
  FRAP antioxidant inhibition activity IC50: 391.00 ± 7.46 µg/mL
[4]
  maximum total antioxidant capacity value (absorbance at 695 nm): 1.57 ± 0.01
  Total Antioxidant Capacity IC50: 17,600 ± 41.64 µg/mL
[5]
  NO-scavenging maximum inhibition: 79.01 ± 0.07%
  Nitric Oxide scavenging IC50: 270.10 ± 3.51 µg/mL
Mushroom tyrosinase
  tyrosinase inhibition: 55.00 ± 0.23%
  Tyrosinase inhibition activity IC50: 494.40 ± 27.86 µg/mL
Porcine α-amylase
  IC50: 142 µM
Porcine α-amylase; [13]
  inhibition at 5000 µg/mL: 91.51 ± 0.51%
acetylcholinesterase
  IC50: 1490 µM
acetylcholinesterase; highest concentration tested (5 mg/mL), read-out: AChE activity inhibition
  inhibition at 5000 µg/mL: 15.92 ± 0.13%
Plasmid pBR322 DNA
  DNA damage inhibition activity IC50: 15.00 ± 0.22 µg/mL
[6]
  BSA damage inhibition activity IC50: 3.68 ± 0.35 µg/mL

## O=C1O[C@H]([C@@H](O)CO)C(O)=C1O [VC, vitamin C]
[1]
  DPPH antioxidant inhibition activity IC50: 881.70 ± 13.38 µg/mL
[2]
  ABTS maximum antioxidant activity: 90.13 ± 0.04%
[3]
  maximum FRAP value: 10,233.67 ± 243.72 µmol of Fe (II)
  FRAP antioxidant inhibition activity IC50: 743.60 ± 30.11 µg/mL
[4]
  maximum total antioxidant capacity value (absorbance at 695 nm): 0.041 ± 0.000
  Total Antioxidant Capacity IC50: 3005.00 ± 72.45 µg/mL
[5]
  NO-scavenging maximum inhibition: 56.55 ± 1.52%
  Nitric Oxide scavenging IC50: 2710.00 ± 13.35 µg/mL
Mushroom tyrosinase
  tyrosinase inhibition: 98.72 ± 0.15%
  Tyrosinase inhibition activity IC50: 1881.00 ± 48.56 µg/mL
Porcine α-amylase; [13]
  α-amylase activity inhibition: 93.18 ± 0.18%
Porcine α-amylase; mean ± SD, n = 3
  Porcine α-amylase inhibition activity IC50: 97.62 ± 8.14 µg/mL
Plasmid pBR322 DNA
  DNA damage inhibition activity IC50: 505.00 ± 21.63 µg/mL
[6]
  BSA damage inhibition activity IC50: 25.32 ± 1.29 µg/mL

## CC1(C)S[C@@H]2[C@H](NC(=O)[C@H](N)c3ccc(O)cc3)C(=O)N2[C@H]1C(=O)O [amoxicillin]
[7]; Control 1, 25 mg/disc
  inhibition-zone diameter: 25.00 ± 2.40 mm
[8]; Control 1, 25 mg/disc
  inhibition-zone diameter: 28.00 ± 2.76 mm
[9]; Control 1, 25 mg/disc
  inhibition-zone diameter: 30.00 ± 1.30 mm
[10]; Control 1, 25 mg/disc
  inhibition-zone diameter: −ve
[11]; Control 1, 25 mg/disc
  inhibition-zone diameter: 37.00 ± 2.80 mm

## C[C@@H]1[C@H](O)[C@@H](C)/C=C/C=C/C=C/C=C/C=C/C=C/C=C/[C@H](O[C@@H]2O[C@H](C)[C@@H](O)[C@H](N)[C@@H]2O)C[C@@H]2O[C@](O)(C[C@@H](O)C[C@@H](O)[C@H](O)CC[C@@H](O)C[C@@H](O)CC(=O)O[C@H]1C)C[C@H](O)[C@H]2C(=O)O [amphotericin-B]
[12]
  inhibition-zone diameter: 25.50 ± 2.30 mm

## CC1(C)S[C@@H]2[C@H](NC(=O)[C@H](N)c3ccccc3)C(=O)N2[C@H]1C(=O)O [ampicillin]
[7]; Control 2, 10 mg/disc
  inhibition-zone diameter: −ve
[8]; Control 2, 10 mg/disc
  inhibition-zone diameter: 13.20 ± 0.68 mm
[9]; Control 2, 10 mg/disc
  inhibition-zone diameter: 10.00 ± 0.80 mm
[10]; Control 2, 10 mg/disc
  inhibition-zone diameter: −ve
[11]; Control 2, 10 mg/disc
  inhibition-zone diameter: 18.00 ± 1.48 mm
